We go through two compounds from US20140228423A1, “BIOMARKERS AND THERAPY FOR CANCER” (BAYLOR COLLEGE OF MEDICINE, priority 2011, published 2014).

Data set [1] concerns OVCAR8 cells. Description: Cell viability of OVCAR8 cells after 48 hours with drug (dose response). Format: cell-based. The note with it: Homo sapiens, OVCAR-8; 48-hr treatment of OVCAR8 cells. How it is done: (§1) FIG. 10. Drug and miRNA mimic effects on ovarian cancer cell viability (A-C) and proliferation (D). OVCAR8 cancer cells were incubated for 48 hours in the presence of YM155 (A) or everolimus (B) and assayed for cell viability. C. Three independent PTEN/DICER DKO mouse serous carcinoma cell lines were transfected with miRNA control (miR-Ctrl) or miR-34c mimics and assayed for cell viability 48 hours later. D. OVCAR8 cells were infected with lentivirus expressing miR-Ctrl or miR-34c and assayed for cell number. *, P<0.05; **, P<0.005; ***, P<0.0005
FIG. 17. Dose response curve of YM155 after 48-hr treatment of OVCAR8 cells.
Well-known as an apoptosis inhibitor, survivin has been identified to contribute to nearly every aspect of cancer from onset to outcome (Altieri, 2008; Martinelli et al., 2006). Nearly all serous, endometrioid, and poorly-differentiated ovarian cancers express surviving (Cohen et al., 2003), the levels of survivin correlate with poor prognostic parameters (Cohen et al., 2003), high levels of survivin are associated with taxol/platinum resistance (Zaffaroni et al., 2002), and women with PTEN-negative/survivin-positive ovarian cancers have the worst prognosis (Sui et al., 2006). […] Based on these findings, the inventors treated mouse serous cancer cell lines and the human serous cancer line OVCAR8 with YM155 or everolimus, an inhibitor of mTOR (FIG. 5A, B). […]

In data set [2] the test system is OVCAR8 cells. Briefly: Illumina gene expression analysis of YM155-treated versus DMSO-treated OVCAR8 cells. As to conditions: OVCAR8, 6 hours. Format: cell-based, human. The method, then: (§2) To characterize the early targets of YM155 in cancer cells, the ovarian cancer cell line OVCAR8 was treated acutely for 6 hours with YM155 (10 nM). Using Illumina gene expression analysis and QPCR followup, YM155-treated cells were compared with DMSO vehicle treated cells. […] DDIT3 (a.k.a., CHOP) is a proapoptotic protein whose induction is a hallmark of ER stress induced apoptosis (Wang et al., 2010). […] HSP72 has strong cytoprotective effect by functioning as a molecular chaperone in cytosolic protein folding, transport, and degradation (Morimoto et al., 1997; Tavaria et al., 1996), and as an inhibitor of cellular apoptosis (Gamido et al., 2003; Samali and Orrenius, 1998). In addition, HSP72 interacts with ER stress sensor protein IRE1a thereby enhancing IREla-XBP1 signaling at the ER and promoting adaptation to ER stress and cell survival (Gupta et al., 2010). HSP72 is normally expressed at low levels, and is induced upon exposure to environmental stress to exert its cytoprotective effect. However, in cancer, HSP72 is constitutively expressed in many cancer cell lines and biopsies, and its expression correlates with poor prognosis (Gabai et al., 2009). HSP72 provides a selective advantage to cancer cells by suppressing default senescence via p53-dependent and p53-independent pathways (Yaglom et al., 2007). Thus, YM155 acutely suppresses HSPA1A and HSPA1B, indicating a novel mechanism which may contribute directly to the anti-cancer effect of YM155.

Data set [3] has as its system OVCAR8 cells. Description: QPCR follow-up of YM155-treated versus DMSO-treated OVCAR8 cells. Format: cell-based, human. The note with it: OVCAR8, 6 hours.
Source text: as §2, with “Using” for “To characterize the early targets of YM155 in cancer cells, the ovarian cancer cell line OVCAR8 was treated acutely for 6 hours with YM155 (10 nM). Using”

For data set [4], the system named is ovarian cancer cell lines and a pancreatic cancer cell line. Description: Cell Titer Glo viability with YM155, parthenolide or both for 48 hours. The note with it: single agents at levels giving about half inhibition, and their combination.
Data set [5] relates to OVCAR8 cells. Description: High-throughput screen of Prestwick Chemical Library with or without YM155. The note with it: Homo sapiens, OVCAR-8, read-out: Cell viability.
Description: High-throughput screen for drugs that synergize with YM155. […] Digitonin (0.8 mg/ml) was used as a positive control for ˜100% cell death. […] The relative synergy for each drug was then calculated by subtracting measured cell survival of combinatorial treatment from the calculated c value.
To identify additional small molecules that synergize with YM155, a small library screen was performed.
Data set [6] has as its system Dicer-Pten DKO mouse cancer cell lines. Briefly: Cell viability (CellTiter-Glo) of Dicer-Pten DKO mouse cancer cell lines after miRNA mimic transfection or everolimus. Format: cell-based. As to conditions: for cell viability and proliferation after miR-34c mimic delivery: mouse and human serous cancer cell lines (three PTEN/DICER DKO lines, OVCAR8). How it is done:
FIG. 4. Activation of the PI3K pathway in Dicer/Pten DKO mice and effects of mir34c and everolimus on a Dicer/Pten DKO cell line. A, Western blot analysis of DKO fallopian tube tumors showing activation of AKT signaling compared with control fallopian tubes. B, A Dicer/Pten DKO cell line was transfected with miR-34c mimic or a control (miR-Ctrl), treated with everolimus (0.8 uM) or without (DMSO), and examined 48 h later for the effects on cell viability.
To functionally evaluate the roles of miR34c and the mTOR inhibitor everolimus in serous cancers, the inventors first generated 32 cell lines from primary cancers (5 lines), metastatic lesions (11 lines), and ascites fluid (16 lines) of independent Dicer/Pten DKO mice. The effects were analyzed of everolimus and miR-34c mimic alone and in combination on a confirmed Dicer/Pten double null cell line derived from a primary mouse serous cancer. […] Based on the studies, there are the following considerations: 1) MiR-34c and additional miRNAs function to suppress the development of high grade serous carcinomas and the […], and/or 2) Simultaneous pharmacological targeting of mTOR and pathways downstream of miR-34c and other miRNAs leads to therapies to eradicate high-grade serous carcinomas.
Dicer-Pten DKO mouse cancer cell line DKO-1 were transfected with various miRNA mimics including miR-31, miR-100, let-7b, miR-34c or a miRNA control (miR-Ctrl). Cell viability was measured by ATP quantitation-based CellTiter-Glo assay 48 hours after transfection.
(§3) FIG. 13A is a cell viability assay. Dicer-Pten DKO mouse cancer cell lines were transfected with miR-34c followed by cell viability assay in 48 hours using CellTiter-Glo assay. FIG. 13B is cell cycle analysis. Forty-eight hours after miR-34c transfection, Dicer-Pten DKO mouse cancer cell lines were fixed in cold 70% ethanol and stained with PI. Cell cycle profiles were determined by flow cytometry and analyzed by flowjo.
(In general: Cellular ATP, detected with luciferase, serves as a proxy for viable cell number.)

Data set [7] deals with PTEN/DICER DKO primary serous cancer cell lines. Briefly: Microarray analysis (QPCR follow-up) of gene expression after miR-34c mimic transfection. Format: cell-based, mouse. The method, then:
To characterize the roles of miR-34c in regulating major cancer and cell cycle pathways, mimics were transfected into three independent PTEN/DICER DKO primary serous cancer cell lines and the human OVCAR8 serous cancer cell line and assayed for cell viability and cell proliferation (FIG. 5C, D) and microarray analysis was performed, with followup QPCR confirmation. […] The effects were examined of miR-34c on major pathway genes that contain miR-34c binding sites in their 3′UTR sequences as well as pathways in which these proteins lie. […] These findings are especially relevant to cancer treatment since mutations in TOP2A are associated with drug resistance, and TOP2A is the target for several chemotherapeutic agents.

The test system of data set [8] is OVCAR8. Briefly: Lentiviral expression of miR-34c in OVCAR8: proliferation (CellTiter-Glo) and cell cycle (PI flow cytometry). Format: cell-based, human. How it is done:
as §1
In FIG. 16A, OVCAR8 infected with miR-34c or control lentivirus were seeded onto 96-well plates for proliferation assay measured by CellTiter-Glo assay. In FIG. 16B, five days after miR-34c or control lentivirus infection, cells were fixed in cold 70% ethanol and stained with PI. Cell cycle profiles were determined by flow cytometry and analyzed by flowjo.

Data set [9] deals with Dicer-Pten DKO mouse cancer cell lines. Description: Cell cycle analysis (PI, flow cytometry) after miR-34c transfection. Format: cell-based. As to conditions: 48 hours after miR-34c transfection. How it is done: as §3
For orientation: In flow cytometry, cells or beads pass a laser one at a time.

Data set [10] relates to Dicer-Pten DKO mouse cancer cell line. Briefly: QPCR analysis of miR-34c downstream genes after miR-34c mimic transfection. Format: cell-based. An excerpt: In FIG. 14, miR-34c inhibits cyclinE-CDK2 complex. Analysis of some of miR-34c downstream genes is shown. QPCR analysis showing relative quantity of CDK2 (A), CCNE2 (B) and CDKN1C(C) after miR-34c mimic transfection in Dicer-Pten DKO mouse cancer cell line.

The mark [11] stands for this setting: transient transfection, Dicer-Pten DKO cell lines.

With `COCCn1c2c([n+](Cc3cnccn3)c1C)C(=O)c1ccccc1C2=O` [YM155, sepantronium bromide], the GI50 – broadly, the concentration at which growth is held to half of that of the control – in [1] was 4.6 nM. Also, in [2], the “Fold Change YM155 (10 nM)/DMSO (Array): ATF3” value is listed as 2.2, the “Fold Change YM155 (10 nM)/DMSO (Array): BIRC5 (Survivin)” value was −1.3, the “Fold Change YM155 (10 nM)/DMSO (Array): DDIT3” value came out at 3.8 and the “Fold Change YM155 (10 nM)/DMSO (Array): DDIT4” value stood at 5.6. In data set [2], the “Fold Change YM155 (10 nM)/DMSO (Array): HERPUD1” value was 2.2, the “Fold Change YM155 (10 nM)/DMSO (Array): HSPA1A” value is −2.6, the “Fold Change YM155 (10 nM)/DMSO (Array): HSPA1B” value was −2.6 and the “Fold Change YM155 (10 nM)/DMSO (Array): TRIB3” value came to 2.6. In data set [3], the “Fold Change YM155 (30 nM)/DMSO (QPCR): ATF3” value turned out to be 11.1, the “Fold Change YM155 (30 nM)/DMSO (QPCR): BIRC5 (Survivin)” value was −1.1, the “Fold Change YM155 (30 nM)/DMSO (QPCR): DDIT3” value stood at 3.6 and the “Fold Change YM155 (30 nM)/DMSO (QPCR): DDIT4” value came out at 10.6. For the same compound, in data set [3], the “Fold Change YM155 (30 nM)/DMSO (QPCR): HERPUD1” value is 3.1, the “Fold Change YM155 (30 nM)/DMSO (QPCR): HSPA1A” value is given as −7.5, the “Fold Change YM155 (30 nM)/DMSO (QPCR): HSPA1B” value is −4.4 and the “Fold Change YM155 (30 nM)/DMSO (QPCR): TRIB3” value was found to be 2.0. The “inhibition of cancer cell viability” value in [4] is on record as approximately 50%. Further, in data set [5], the viability (commonly a per cent measure of how many cells are alive, often set against a control) at 0.003 µM is 64.3%.

Consider “miR-34c mimic: mimic of miR-34c, mature sequence AGGCAGUGUAGUUAGCUGAUUGC (SEQ ID NO:2); also delivered by lentivirus (listed as RNA, chemistry not given here)”, for which the “sensitivity of cells (anti-proliferative, secondary to G1 arrest, and pro-apoptotic effects)” value in data set [6] (Dicer/Pten double null line from primary mouse serous cancer, everolimus 0.8 uM, 48 h, alone and in combination) is reported as “exquisitely sensitive”. Besides, in data set [6] (Dicer/Pten serous ovarian cancer model), the “suppression of mouse and human ovarian cancer cell viability among miRNAs tested” value is recorded as “the only miRNA to suppress”. Besides, the “cell viability and proliferation after miR-34c mimic delivery” value in data set [6] is on record as “dramatic effect”. Further, in [6] (listed as miR-34c), the “cell viability and proliferation after miR-34c mimic delivery” value is recorded as “reduced cell viability”. Moreover, in data set [6] (setting [11]), the apoptosis entry is reported as “induction of apoptosis” and the cell growth result is “growth inhibitory effect”. In addition, the “suppression of TOP2A” value in [7] (by the miR-34c mimic) stood at 11.7 fold. For the same compound, the “Fold Change miR-34c mimic: CCNE2” value in data set [7] (gene CCNE2, predicted miR-34c binding site) was −4.6. The “Fold Change miR-34c mimic: CDC6” value in [7] (gene CDC6, predicted miR-34c binding site) is given as −5.5. Besides, the “Fold Change miR-34c mimic: CDCA8” value in [7] (gene CDCA8, predicted miR-34c binding site) is reported as −9.6. For the same compound, in [7] (gene CDK2), the “Fold Change miR-34c mimic: CDK2” value is on record as −3.4. Further, the “Fold Change miR-34c mimic: CDT1” value in [7] (gene CDT1) is given as −6.3. In data set [7] (gene INCENP), the “Fold Change miR-34c mimic: INCENP” value is on record as −4.5. For the same compound, in [7] (gene MCM5, predicted miR-34c binding site), the “Fold Change miR-34c mimic: MCM5” value is given as −18.7. The “Fold Change miR-34c mimic: MDM2” value in data set [7] (gene MDM2) is given as 1.0. Besides, the “Fold Change miR-34c mimic: MRVI1” value in data set [7] (gene MRVI1) was 10.2. For the same compound, the “Fold Change miR-34c mimic: PBK” value in data set [7] (gene PBK) was −5.7. In data set [7] (gene Survivin), the “Fold Change miR-34c mimic: Survivin” value is on record as −4.8. The “Fold Change miR-34c mimic: TOP2A” value in data set [7] (gene TOP2A) is recorded as −11.7. Further, the “upregulation of MRVI1” value in [7] (miR-34c mimic) stood at 10.2 fold. Moreover, the “downregulation of direct targets MCM5, CDC6, CCNE2 and CDCA8” value in data set [7] (upon delivery of miR-34c) is 4.6-18.7 fold. Also, the cell cycle profile result in [8] (five days after lentivirus infection, OVCAR8) is “arresting cancer cells in G1 phase”. In addition, the cell proliferation entry in data set [8] (lentiviral expression of miR-34c in OVCAR8) is recorded as “inhibits cell proliferation”. The cell cycle profile entry in data set [9] is given as “cell cycle arrest in G1 phase”. In data set [10], the CDK2 relative quantity result is “down regulating”, the CDKN1C relative quantity entry is “up regulating” and the “cyclinE (CCNE2) relative quantity” value was “down regulating”.
